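Step 1: Grow cells in 96-well plates. Step 2: Expose to compound for 48 hours at 5 concentrations. Step 3: Interpolate endpoints linearly; if unreached, use highest concentration. GI50 marks 50% less growth. TGI marks complete inhibition of growth.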
Legend:
Test in all cases: inhibition of tumour cell growth, NCI panel, 48 h
HCT-116 colon = system: HCT-116 colon
SN12C renal = system: SN12C renal
HOP-92 NSCLC = system: HOP-92 NSCLC
SNB-78 CNS = system: SNB-78 CNS
SF-295 CNS = system: SF-295 CNS
HT29 colon = system: HT29 colon
OVCAR-4 ovarian = system: OVCAR-4 ovarian
IGROV1 ovarian = system: IGROV1 ovarian
ACHN renal = system: ACHN renal
DU-145 prostate = system: DU-145 prostate

| SMILES | TGI (HCT-116 colon) [µM] | TGI (SN12C renal) [µM] | TGI (HOP-92 NSCLC) [µM] | TGI (SNB-78 CNS) [µM] | TGI (SF-295 CNS) [µM] | TGI (HT29 colon) [µM] | TGI (OVCAR-4 ovarian) [µM] | TGI (IGROV1 ovarian) [µM] | TGI (ACHN renal) [µM] | TGI (DU-145 prostate) [µM] | GI50 (SN12C renal) [µM] | GI50 (HOP-92 NSCLC) [µM] | GI50 (SF-295 CNS) [µM] | GI50 (DU-145 prostate) [µM] | GI50 (OVCAR-4 ovarian) [µM] | GI50 (IGROV1 ovarian) [µM] | GI50 (ACHN renal) [µM] | GI50 (HCT-116 colon) [µM] | GI50 (HT29 colon) [µM] |
| --- | --- | --- | --- | --- | --- | --- | --- | --- | --- | --- | --- | --- | --- | --- | --- | --- | --- | --- | --- |
| CCOC(=O)/C=C(\C)c1ccc(OC)cc1 | > 100 | > 100 | > 100 | > 100 | > 100 | > 100 | > 100 | > 100 | > 100 | – | – | – | – | – | – | – | – | – | – |
| Cc1ccc(S(N)(=O)=O)cc1 | > 1000 | > 1000 | > 1000 | – | > 1000 | > 1000 | – | > 1000 | > 1000 | > 1000 | – | – | – | – | – | – | – | – | – |
| NCc1ccc(C(=O)O)cc1 | > 100 | > 100 | > 100 | – | > 100 | > 100 | > 100 | > 100 | > 100 | > 100 | – | – | – | – | – | – | – | – | – |
| COc1cc(C2c3cc4c(cc3[C@@H](Nc3cccc(C(C)=O)c3)C3COC(=O)[C@H]23)OCO4)cc(OC)c1O (some centres undefined) | 7.81 | – | 14.8 | > 100 | 1.39 | 6.53 | > 100 | 24.6 | – | – | – | – | – | – | – | – | – | – | – |
| Brc1ccccc1-c1ncc(-c2ccccc2)o1 | > 100 | > 100 | 46.3 | – | > 100 | > 100 | > 100 | 78.7 | > 100 | > 100 | – | – | – | – | – | – | – | – | – |
| COc1ccc(-c2cc(N3CCN(c4ccccc4)CC3)c(C#N)c(=O)o2)cc1 | > 100 | > 100 | > 100 | 59 | 59.5 | > 100 | 15 | > 100 | > 100 | – | – | – | – | – | – | – | – | – | – |
| N#Cc1c(NC(=S)NC(=O)c2ccccc2)nc2c(c1-c1ccccc1)CCCC2 | > 100 | – | – | – | > 100 | > 100 | > 100 | > 100 | – | > 100 | – | – | – | – | – | – | – | – | – |
| CCC(C)C(=O)c1c(O)c(C/C=C(\C)CCC=C(C)C)c(O)c2c(C(O)CC)cc(=O)oc12 (centres undefined) | 2.21 | 8.26 | 5.47 | 16.7 | 7.82 | 3.62 | 10.5 | 13.6 | 8.38 | – | – | – | – | – | – | – | – | – | – |
| CC(C)(Br)C1(O)CCCN1C(=O)c1ccccc1 (centres undefined) | > 100 | > 100 | > 100 | > 100 | > 100 | > 100 | – | > 100 | > 100 | – | – | – | – | – | – | – | – | – | – |
| C#CC[C@@H]1C[C@]2(C)[C@H]3CC=C4[C@H]5CC(C)(C)CC[C@]5(C(=O)NCCCCN)CC[C@@]4(C)[C@]3(C)CC[C@H]2C(C)(C)[C@H]1OC(C)=O | – | 3.28 | 2.81 | – | 3.29 | – | 3.23 | 3.02 | 3.11 | 3.15 | 1.76 | 1.33 | 1.82 | 1.7 | 1.71 | 1.62 | 1.73 | – | – |
| ClCc1c(Cl)c(Cl)c(Cl)c(CCl)c1Cl | 3.17 | 4.03 | 3.15 | – | 27.7 | 3.3 | 2.98 | 4.19 | 3 | 3.99 | 1.91 | 1.55 | 9.07 | 1.98 | 1.62 | 1.97 | 1.64 | 1.71 | 1.79 |
| CCO/N=[N+](\[O-])N(CC)CC | > 100 | > 100 | > 100 | > 100 | > 100 | > 100 | – | > 100 | > 100 | – | – | – | – | – | – | – | – | – | – |

From PubChem BioAssay (NCI)
